Data reported in patent publication US7846966B2, “Chroman derivatives as estrogenic compounds” (N.V. Organon, priority 2000, dated 2010).

System: human estrogen receptor α (hERα) or β receptor (hERβ)
Experiment: in vitro transactivation bioassay (estrogenic activity) in recombinant CHO cells co-transfected with hER, rat oxytocin promoter and luciferase reporter
Type: cell-based
Conditions: for Potency Transactivation (% relative to 17β-estradiol): agonist potency ratio vs estradiol, CHO cells, luciferase reporter, receptor subtype not given; for β/α ratio: ratio of hERβ to hERα
Experimental: The estrogenic and antiestrogenic activity of compounds is determined in an in vitro bioassay with recombinant Chinese hamster ovary (CHO) cells stably co-transfected with the human estrogen receptor α (hERα) or β receptor (hERβ), the rat oxytocin promoter (RO) and the luciferase reporter gene (LUC). The estrogenic activity (potency ratio) of a test compound to stimulate the transactivation of the enzyme luciferase mediated via the estrogen receptors hERα or hERβ is compared with the standard estrogen estradiol. The antiestrogenic activity (potency ratio) of a test compound to inhibit the transactivation of the enzyme luciferase mediated via the estrogen receptors hERα or hERβ by the estrogen estradiol is compared with the standard ICI 164.384 (=(7α, 17β)-N-butyl-3,17-dihydroxy-N-methylestra-1,3,5(10)-triene-7-undecanamide).

CCCC(=O)Oc1ccc(C2Oc3ccc(OC(=O)CCC)cc3C(Cc3ccccc3)C2CC)cc1 (racemic) [Compound 6a]
Potency Transactivation (% relative to 17β-estradiol): +++ (+++ >10%)
β/α ratio: +++ (+++ >30)

CCC1C(Cc2ccccc2)c2cc(OC(=O)C(C)(C)C)ccc2OC1c1ccc(OC(=O)C(C)(C)C)cc1 (racemic) [Compound 6b]
Potency Transactivation (% relative to 17β-estradiol): + (+ between 0.1-4%)
β/α ratio: + (+ between 3.5-10)

CCC1C(Cc2ccccc2)c2cc(O)ccc2OC1c1ccc(O)cc1 (stereo not drawn) [Compound 5b]
Potency Transactivation (% relative to 17β-estradiol): +++ (+++ >10%)
β/α ratio: +++ (+++ >30)
